Patent publication US20120270300A1, “PRODUCTION OF RECOMBINANT FACTOR IX IN A HUMAN HEPATOCYTE CELL LINE” (Universite Claude Bernard Lyon I, priority 2009, published 2012)
Where two headings read alike, the source gives them in different places.

Columns and labels:
[1] = test system: Huh7 cells transiently transfected with pcDNAFIXwt; assay: Effects of protein degradation inhibitors on the intracellular level of FIXwt (ELISA on lysates); type: cell-based, human; settings: for Intracellular FIX level (mean ± SE): 6 h treatment, 36 h after transfection, % relative to nontreated cell lysates, NH4Cl 50 mM/l, beta-lactone 10 μM/l, brefeldin A 10 μg/ml
Procedure: Huh7 cells (1×10^6 cells/dish) were transiently transfected at 80% confluence in 60 mm culture dishes. Thirty-six hours after transfection, the cells were incubated in FBS-free medium containing 10 μM/l of clasto-lactacystin β-lactone (Calbiochem, France Biochem, Meudon, France), 50 mM/l of ammonium chloride, or 10 μg/ml of brefeldin A (Sigma Aldrich). The medium was renewed every 2 hours.
The cell lysates were harvested 6 h later and prepared in 120 μl of cold lysis buffer. The FIX antigen concentration was quantified on the lysates by means of an ELISA assay. The results are expressed as percentage of values obtained relative to the nontreated control lysates. The comparisons were carried out by application of Fisher's test using the Stat View® software.
Thirty-six hours after transfection, the inhibitors were added to the culture medium and left for 6 h. The intracellular FIX concentrations were measured after treatment by means of an ELISA assay (the values are expressed as % of FIX relative to the values obtained in the nontreated cell lysates). The results are brought together in table 1 below and correspond to three independent transfections.

[2] = hemophilia B patients, versus plasma FIX (Mononine); cited from earlier work
[3] = versus plasma FIX (Mononine); cited from earlier work
[4] = test system: factor IX-deficient plasma; assay: Specific coagulation activity, one-step chronometric aPTT test, related back to Benefix (aPTT/ELISA); type: biochemical
Procedure: The term “biologically active FIX” is intended to mean a factor IX of which the specific coagulation activity is at least 100%. The recombinant FIX secreted into the culture medium of the present invention preferably has a specific coagulation activity of from 150 to 200%, preferably from 170 to 200%. The specific coagulation activity of the factor IX is determined by means of the technique termed chronometric time technique by measuring the partial thromboplastin time (PTT) or activated partial thromboplastin time (aPTT) which is a semi-overall test of blood coagulation which uses a coagulometer. The test used is detailed in the examples. In this test, Benefix® has a specific activity of 100%.
The specific coagulation activity of the factor IX is determined using the technique termed chronometric time technique by measuring the partial thromboplastin time (PTT) or activated partial thromboplastin time (aPTT) according to K. J. Smith et al., Blood, 72, 1269-1277 (1988), which is a semi-overall one-step blood coagulation test with an MDA II® or else Destiny Max coagulometer (Trinity Biotech, Dublin, Ireland). For this, fifty microliters of sample are diluted to 1/10th in imidazole buffer (Trinity Biotech, Bray, Ireland). […] The coagulation time is measured by means of a coagulometer using an MDA II® or else Destiny Max automated device (Trinity Biotech, Bray, Ireland). […]

[5] = test system: factor IX-deficient plasma; settings: FIX from HepG2 cells with viral vectors, published by Chen et al.; cited from earlier work
[6] = test system: factor IX-deficient plasma; assay: aPTT coagulation test under the conditions of Chen et al., related to standard plasma values, converted into ng/ml; type: biochemical; settings: Huh7-CD4 clone
Procedure: A comparative study with respect to the works of Chen et al., 1997, was carried out. In these experiments, 1×10^6 cells of the Huh7-CD4 clone were seeded into 6-well plates. The following day, the medium was renewed and left in the presence of the producer cells for 24 hours. The FIX concentrations in this medium are determined using the Asserachrom IX:Ag ELISA kit (Diagnostica Stago). The activity of the FIX secreted into this medium is determined in a one-step coagulation test (aPTT) with an MDA II or else Destiny Max coagulometer (Trinity Biotech, Dublin, Ireland) as described above. The activity of the factor IX is determined from standard plasma values (Standard Human Plasma, Siemens Marburg, Germany, calibrated against a WHO—World Health Organization—standard) by means of a log-log curve. […] The specific activity of the FIX resulting from the Huh7-CD4 clone is calculated according to the ratio between the coagulant activity read for the sample, related back to the standard plasma values, and its FIX concentration (aPTT/ELISA).
Moreover, the specific activity of the FIX produced by the Huh7-CD4 line was determined according to the conditions determined by Chen et al. The ratio between the concentrations measured by the aPTT method (ng/ml) and measured by ELISA (ng/ml) was calculated on the basis of five different assays. […]

With `CC(C)[C@H](O)[C@@]12NC(=O)[C@H](C)[C@@H]1OC2=O` [Beta-lactone, clasto-lactacystin β-lactone] the “Intracellular FIX level (mean ± SE)” value [1] was 50.1% +/− 25.8 and the “Intracellular FIX level (mean ± SE)” value ([1]; listed as clasto-lactacystin β-lactone) was “no significant effect”.
With `C[C@H]1CCC/C=C/[C@@H]2C[C@H](O)C[C@H]2[C@H](O)/C=C/C(=O)O1` [Brefeldin A, brefeldin A] the “Intracellular FIX level (mean ± SE)” value [1] was 254.4% +/− 21.4 and the “increase of intracellular FIXwt level compared with that without inhibitor” value ([1]; after incubation with brefeldin A, p=0.005) was 370%.
For “Benefix: marketed recombinant FIX (Wyeth) synthesized by CHO cells stably transfected with the FIX cDNA”, the “half-life in the blood stream compared with plasma FIX” value [2] is listed as “similar”, the “specific activity compared with FIX of plasma origin” value [3] is listed as “equivalent” and the “specific activity relative to that of Benefix” value ([4]; culture supernatants of transiently transfected Huh7 cells, 36 h after transfection, Benefix = 100%) is listed as 100%.
For “FIX/GCF9SN-MPSV: FIX produced with a viral vector in the HepG2 hepatocyte cell line by Chen et al., 1997”, the “% specific activity aPTT/ELISA” value [5] is given as 73.5 +/− 19.7% and the aPTT [5] is given as 55 ± 15 ng/mL.
For “FIX/GCNCF9: FIX produced with a viral vector in the HepG2 hepatocyte cell line by Chen et al., 1997”, the “% specific activity aPTT/ELISA” value [5] is listed as 93.7 +/− 11% and the aPTT [5] is listed as 120 ± 14 ng/mL.
In the case of “FIXwt: recombinant human factor IX expressed in the human hepatocyte cell line Huh7 (transient, or stable clone Huh7-CD4) and secreted into the supernatant”, the aPTT ([6]; 24 hours/10^6 cells, 5 μg/ml of FIX = 100%) is reported as 740 ± 59 ng/mL, the “% specific activity aPTT/ELISA” value ([6]; related to standard plasma, five assays) is reported as 161 +/− 37% and the “specific activity improved by a factor” value ([4]; transiently transfected Huh7 cells, versus Benefix) is reported as 1.7.
